Assay results reported in the supplement of paper PMC10307832.

Legend:
Experiment in all cases: relative viability (nuclei count vs DMSO), 5 days (fraction); higher = more cells survive
RU-SKI 43 + Phenformin = compound: CC[C@@H](C)CNCC(=O)N1CCC2=C([C@@H]1COC3=CC=CC(=C3)C)C=CS2 [RU-SKI 43] + N=C(N)NC(=N)NCCc1ccccc1 [Phenformin] (partner 250 µM)
How it was run: (§1)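 Lung cancer cell lines, seeded in 1536-well plates, were treated the following day by pin tool with a single drug or with five library-drug doses (not always all listed) in √10 steps on top of a fixed anchor-drug dose. Cells were fixed and nuclei stained in one step after 5 days, and nuclei were counted. Relative viability is the nuclei count for treated wells divided by that for vehicle wells, reported as medians of duplicate plates.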

RU-SKI 43 + Decitabine = compound: CC[C@@H](C)CNCC(=O)N1CCC2=C([C@@H]1COC3=CC=CC(=C3)C)C=CS2 [RU-SKI 43] + Nc1ncn([C@H]2C[C@H](O)[C@@H](CO)O2)c(=O)n1 [Decitabine] (partner 2 µM)
How it was run: as §1

Irinotecan + Alpelisib = compound: CCc1c2c(nc3ccc(OC(=O)N4CCC(N5CCCCC5)CC4)cc13)-c1cc3c(c(=O)n1C2)COC(=O)[C@]3(O)CC [Irinotecan] + Cc1nc(NC(=O)N2CCC[C@H]2C(N)=O)sc1-c1ccnc(C(C)(C)C(F)(F)F)c1 [Alpelisib] (partner 2 µM)
How it was run: as §1

MK-8033 + Lapatinib = compound: Cn1cc(-c2cnc3ccc4ccc(CS(=O)(=O)NCc5ccccn5)cc4c(=O)c3c2)cn1 [MK-8033] + CS(=O)(=O)CCNCc1ccc(-c2ccc3ncnc(Nc4ccc(OCc5cccc(F)c5)c(Cl)c4)c3c2)o1 [Lapatinib] (partner 2 µM)
How it was run: as §1

Cell Line	relative viability (RU-SKI 43 + Phenformin; first compound 0.1 µM)	relative viability (RU-SKI 43 + Phenformin; first compound 0.3162 µM)	relative viability (RU-SKI 43 + Phenformin; first compound 1 µM)	relative viability (RU-SKI 43 + Phenformin; first compound 3.162 µM)	relative viability (RU-SKI 43 + Phenformin; first compound 10 µM)	relative viability (RU-SKI 43 + Decitabine; first compound 0.1 µM)	relative viability (RU-SKI 43 + Decitabine; first compound 0.3162 µM)	relative viability (RU-SKI 43 + Decitabine; first compound 1 µM)	relative viability (RU-SKI 43 + Decitabine; first compound 3.162 µM)	relative viability (RU-SKI 43 + Decitabine; first compound 10 µM)	relative viability (Irinotecan + Alpelisib; first compound 0.6325 µM)	relative viability (Irinotecan + Alpelisib; first compound 2 µM)	relative viability (Irinotecan + Alpelisib; first compound 6.325 µM)	relative viability (Irinotecan + Alpelisib; first compound 20 µM)	relative viability (MK-8033 + Lapatinib; first compound 0.02 µM)	relative viability (MK-8033 + Lapatinib; first compound 0.06325 µM)	relative viability (MK-8033 + Lapatinib; first compound 0.2 µM)	relative viability (MK-8033 + Lapatinib; first compound 0.6325 µM)	relative viability (MK-8033 + Lapatinib; first compound 2 µM)
H3255	0.395	0.348	0.26	0.316	0.322	0.564	0.697	0.683	0.619	0.579	0.665	0.409	0.321	0.272	0.24	0.233	0.232	0.261	0.226
NCI-H2009	0.49	0.514	0.519	0.474	0.424	0.374	0.332	0.364	0.376	0.283	0.838	0.591	0.26	0.135	0.959	0.887	0.929	1.13	0.973
NCI-H460	0.534	0.973	0.788	0.575	0.467	0.446	0.698	0.547	0.475	0.379	0.461	0.339	0.0811	0.0821	0.968	0.897	0.907	1.13	0.793
COR-L 105	0.486	0.519	0.555	0.439	0.515	0.625	0.674	0.703	0.629	0.625	1.08	1.18	0.648	0.444	0.286	0.354	0.32	0.361	0.346
BEN	0.26	0.283	0.238	0.262	0.267	0.806	0.692	0.812	0.729	0.78	1.11	0.771	0.319	0.372	0.695	0.679	0.649	0.738	0.75
SW 900	0.626	0.64	0.785	0.687	0.611	0.422	0.408	0.423	0.428	0.453	–	–	–	–	–	–	–	–	–
NCI-H1650	0.423	0.314	0.445	0.386	0.336	0.315	0.36	0.338	0.509	0.34	–	–	–	–	0.823	0.69	0.737	0.709	0.707
NCI-H1563	0.607	0.653	0.706	0.668	0.61	–	–	–	–	–	0.86	0.912	0.875	0.654	0.965	0.833	0.966	0.864	0.886
NCI-H1623	0.629	0.564	0.619	0.583	0.53	–	–	–	–	–	–	–	–	–	–	–	–	–	–
IA-LM	–	–	–	–	–	–	–	–	–	–	0.614	0.408	0.189	0.0631	0.682	0.636	0.66	0.633	0.773
NCI-H2342	0.606	0.562	0.584	0.528	0.634	0.701	–	0.724	0.797	0.769	–	–	–	–	–	–	–	–	–
